{"source": "patent US20250066389A1", "about": "“HETEROCYCLIC AMIDES AND METHODS OF USING THE SAME” (Rgenta Therapeutics, Inc., priority 2021, published 2025)", "note": "pIC50: −log10 of the molar value. Counter-ions that a name gives are not always drawn."}
{"system": "PMS1", "experiment": "Mini-Gene Reporter Assay—PMS1 (firefly luciferase mini-gene reporter transiently transfected into HEK293 cells)", "format": "cell-based", "settings": "Homo sapiens; at 5 uM; mini-gene firefly luciferase reporter in HEK293 cells; read-out: PMS1 % Effect at 5 uM", "excerpt": "(§1) Example 76. Mini-Gene Reporter Assay—PMS1\n(§2) Mini-gene reporter constructs for each target site can be constructed by first PCR amplifying the region-of-interest including the sequence of the alternatively skipped, sequences of the immediate upstream and downstream introns, and sequences of the immediate upstream and downstream exons. Then the 3′ end of the amplified sequence can be ligated to a firefly luciferase reporter gene and cloned into the pcDNA3.1 vector backbone. The final reporter construct can be transiently transfected into HEK293 cells using Lipofectamine 3000 transfection reagents. Compounds that can induce the inclusion of the skipped exon in the reporter construct would increase the reporter firefly luciferase activity.\n(§3) Test compounds may be diluted in duplicates and dispensed into an assay plate. Transient mini-gene reporter cell line stock is resuspended and dispensed into the assay plate. Assay plates are then centrifuged and incubated. A luciferase reagent (e.g. ONE-Glo firefly luciferase reagent from Promega®) may be added to the assay plate and the luminescence (RLU) signals recorded. EC50 values may be determined by curve fitting in Levenberg-Marquardt algorithm.\n(§4) In Table D below, A indicates a IC50 (μM)<1 μM, B indicates a IC50 (μM) 1 μM to <10 μM, and C indicates a IC50 (μM) 10 μM to <50 μM. In Table D below, A indicates a >75% Effect at 5 μM μM. B indicates a 50 to <75% Effect at 5 μM μM, and C indicates a <50% Effect at 5 μM.", "units": {"activation at 5 µM": "%"}}
{"smiles": "CCOc1cc2nc(C)cn2cc1C(=O)Nc1ccc(N2CC[C@H](NC)C2)nn1", "note": "(single isomer, unassigned) [Compound 706]", "activation at 5 µM": "> 75"}
{"smiles": "CCOc1cc2nc(C)cn2cc1C(=O)Nc1ccc(N2CC[C@@H](NC)C2)nn1", "note": "(single isomer, unassigned) [Compound 707]", "activation at 5 µM": "> 75"}
{"smiles": "Cc1cn2cc(C(=O)Nc3ccc(N4CCNCC4)cc3F)ncc2n1", "note": "[Compound 101, N-(2-fluoro-4-(piperazin-1-yl)phenyl)-2-methylimidazo[1,2-a]pyrazine-6-carboxamide HCl Salt]", "activation at 5 µM": "< 50"}
{"smiles": "Cc1cn2cc(C(=O)Nc3ccc(N4CCNCC4)cc3)ncc2n1", "note": "[Compound 102, 2-methyl-N-(4-(piperazin-1-yl)phenyl)imidazo[1,2-a]pyrazine-6-carboxamide]", "activation at 5 µM": "< 50"}
{"smiles": "Cc1cn2cc(C(=O)Nc3ccc(N4CCNCC4)nc3)ncc2n1", "note": "[Compound 103, 2-methyl-N-(6-(piperazin-1-yl)pyridin-3-yl)imidazo[1,2-a]pyrazine-6-carboxamide]", "activation at 5 µM": "< 50"}
{"smiles": "Cc1cn2cc(C(=O)Nc3ccc(N4CCN[C@H](C)C4)nc3)ncc2n1", "note": "[Compound 104, hydrochloride]", "activation at 5 µM": "< 50"}
{"smiles": "Cc1cn2cc(C(=O)Nc3ccc(N4CCN[C@H](C)C4)cc3F)ncc2n1", "note": "[Compound 105, (R)—N-(2-fluoro-4-(3-methylpiperazin-1-yl)phenyl)-2-methylimidazo[1,2-a]pyrazine-6-carboxamide hydrochloride]", "activation at 5 µM": "< 50"}
{"smiles": "Cc1cn2cc(C(=O)Nc3ccc(N4C[C@H]5CC[C@@H](C4)N5)cc3F)ncc2n1", "note": "[Compound 106, N-(4-((1R,5S)-3,8-diazabicyclo[3.2.1]octan-3-yl)-2-fluorophenyl)-2-methylimidazo[1,2-a]pyrazine-6-carboxamide]", "activation at 5 µM": "< 50"}
{"smiles": "Cc1cn2cc(C(=O)Nc3ccc(N4CCN[C@@H](C)C4)cn3)cc(F)c2n1", "note": "[Compound 107, (S)-8-fluoro-2-methyl-N-(5-(3-methylpiperazin-1-yl)pyridin-2-yl)imidazo[1,2-a]pyridine-6-carboxamide TFA Salt]", "activation at 5 µM": "50 to 75"}
{"smiles": "Cc1cn2cc(C(=O)Nc3ccc(N4CCNCC4)cc3F)nc(C)c2n1", "note": "[Compound 109, N-(2-fluoro-4-(piperazin-1-yl)phenyl)-2,8-dimethylimidazo[1,2-a] pyrazine-6-carboxamide hydrochloride]", "activation at 5 µM": "> 75"}
{"smiles": "COc1c(C(=O)Nc2ccc(N3CCNCC3)cn2)cn2cc(C)nc2c1C", "note": "[Compound 112, 7-methoxy-2,8-dimethyl-N-(5-(piperazin-1-yl)pyridin-2-yl)imidazo[1,2-a]pyridine-6-carboxamide]", "activation at 5 µM": "< 50"}
{"smiles": "COc1cc2nn(C)cc2cc1C(=O)Nc1ccc(N2CC3(CNC3)C2)cc1F", "note": "[Compound 116, N-(2-fluoro-4-(2,6-diazaspiro[3.3]heptan-2-yl)phenyl)-6-methoxy-2-methyl-2H-indazole-5-carboxamide TFA Salt]", "activation at 5 µM": "< 50"}
{"smiles": "COc1cc2nn(C)cc2cc1C(=O)Nc1ccc(N2CC3CNCC3C2)cc1F", "note": "(stereo not shown) [Compound 117, N-(2-fluoro-4-(hexahydropyrrolo[3,4-c]pyrrol-2(1H)-yl)phenyl)-6-methoxy-2-methyl-2H-indazole-5-carboxamide]", "activation at 5 µM": "< 50"}
{"smiles": "Cc1cn2cc(C(=O)Nc3ccc(N4CCNCC4)nc3)cc(F)c2n1", "note": "[Compound 121, 8-fluoro-2-methyl-N-(6-(piperazin-1-yl)pyridin-3-yl)imidazo[1,2-a]pyridine-6-carboxamide]", "activation at 5 µM": "< 50"}
{"system": "PMS1", "experiment": "Mini-Gene Reporter Assay—PMS1 (firefly luciferase mini-gene reporter transiently transfected into HEK293 cells)", "format": "cell-based", "settings": "Homo sapiens; mini-gene firefly luciferase reporter in HEK293 cells", "excerpt": "as §1, §2, §3, §4"}
{"smiles": "COc1cc2nc(C)cn2cc1C(=O)Nc1ccc(N2CCN[C@@H]3CC[C@@H]32)cc1F", "note": "(racemic) [Compound 174, rac-N-(4-((1R,6S)-2,5-diazabicyclo[4.2.0]octan-2-yl)-2-fluorophenyl)-7-methoxy-2-methylimidazo[1,2-a]pyridine-6-carboxamide]", "pIC50": "> 6.00"}
{"smiles": "CCOc1cc2nc(C)cn2cc1C(=O)Nc1ccc(N2C[C@H]3CNCC[C@H]32)nn1", "note": "(racemic) [Compound 239]", "pIC50": "5.00 to 6.00"}
{"smiles": "CCOc1cc2nc(C)cn2cc1C(=O)Nc1ccc(N2CC[C@@H]3NCCC[C@@H]3C2)nn1", "note": "(racemic) [Compound 241]", "pIC50": "5.00 to 6.00"}
{"smiles": "CCOc1cc2nc(C)cn2cc1C(=O)Nc1ccc(N2CC[C@@H]3CNC[C@@H]3C2)nn1", "note": "(racemic) [Compound 246]", "pIC50": "5.00 to 6.00"}
{"smiles": "CCOc1cc2nc(C)cn2cc1C(=O)Nc1ccc(N2CCC[C@H]3NCC[C@H]32)nn1", "note": "(racemic) [Compound 252]", "pIC50": "5.00 to 6.00"}
{"smiles": "CCOc1cc2nc(C)cn2cc1C(=O)Nc1ccc(N2C[C@@H]3CNC[C@]3(C)C2)nn1", "note": "(racemic) [Compound 253]", "pIC50": "5.00 to 6.00"}
{"smiles": "CCOc1cc2nc(C)cn2cc1C(=O)Nc1ccc(N2CC[C@@H]3NCC[C@@H]3C2)nn1", "note": "(racemic) [Compound 261]", "pIC50": "5.00 to 6.00"}
{"smiles": "Cc1cn2cc(C(=O)Nc3ccc(N4CCNCC4)cc3F)cc(F)c2n1", "note": "[Compound 108, 8-fluoro-N-(2-fluoro-4-(piperazin-1-yl)phenyl)-2-methylimidazo[1,2-a]pyridine-6-carboxamide hydrochloride]", "pIC50": "5.00 to 6.00"}
{"smiles": "COc1cc2nc(C)cn2cc1C(=O)Nc1ccc(N2CCNCC2)cn1", "note": "[Compound 110, 7-methoxy-2-methyl-N-(5-(piperazin-1-yl)pyridin-2-yl)imidazo[1,2-a]pyridine-6-carboxamide HCl Salt]", "pIC50": "> 6.00"}
{"smiles": "COc1cc2nc(C)cn2cc1C(=O)Nc1ccc(N2CCNCC2)cc1F", "note": "[Compound 111, N-(2-fluoro-4-(piperazin-1-yl)phenyl)-7-methoxy-2-methylimidazo [1,2-a]pyridine-6-carboxamide hydrogen chloride]", "pIC50": "> 6.00"}
{"smiles": "COc1cc2nn(C)cc2cc1C(=O)Nc1ccc(N2CCNCC2)cn1", "note": "[Compound 113, 6-methoxy-2-methyl-N-(5-(piperazin-1-yl)pyridin-2-yl)-2H-indazole-5-carboxamide HCl Salt]", "pIC50": "5.00 to 6.00"}
{"smiles": "COc1cc2nn(C)cc2cc1C(=O)Nc1ccc(N2CCN[C@@H](C)C2)cc1F", "note": "[Compound 114, (S)—N-(2-fluoro-4-(3-methylpiperazin-1-yl)phenyl)-6-methoxy-2-methyl-2H-indazole-5-carboxamide HCl Salt]", "pIC50": "> 6.00"}
{"smiles": "COc1cc2nn(C)cc2cc1C(=O)Nc1ccc(N2CCNCC2)cc1F", "note": "[Compound 115, N-(2-fluoro-4-(piperazin-1-yl)phenyl)-6-methoxy-2-methyl-2H-indazole-5-carboxamide HCl Salt]", "pIC50": "> 6.00"}
{"smiles": "COc1cc2nc(C)cn2cc1C(=O)Nc1ccc(N2CCNCC2)nn1", "note": "[Compound 118, 7-methoxy-2-methyl-N-[6-(piperazin-1-yl)pyridazin-3-yl]imidazo[1,2-a]pyridine-6-carboxamide]", "pIC50": "> 6.00"}
{"smiles": "COc1cc2nc(C)cn2cc1C(=O)Nc1ccc(N2CCNCC2)nc1", "note": "[Compound 119, 7-methoxy-2-methyl-N-[6-(piperazin-1-yl)pyridin-3-yl]imidazo[1,2-a]pyridine-6-carboxamide]", "pIC50": "5.00 to 6.00"}
{"smiles": "COc1cc2nc(C)cn2cc1C(=O)Nc1cnc(N2CCNCC2)nc1", "note": "[Compound 120, 7-methoxy-2-methyl-N-(2-(piperazin-1-yl)pyrimidin-5-yl)imidazo[1,2-a]pyridine-6-carboxamide]", "pIC50": "5.00 to 6.00"}
{"smiles": "Cc1cn2cc(C(=O)Nc3ccc(N4CCN[C@@H](C)C4)nn3)c(OC3CCC3)cc2n1", "note": "[Compound 122, (S)-7-cyclobutoxy-2-methyl-N-(6-(3-methylpiperazin-1-yl)pyridazin-3-yl)imidazo[1,2-a]pyridine-6-carboxamide hydrochloride]", "pIC50": "> 6.00"}
{"smiles": "COc1cc2nn(C)cc2cc1C(=O)Nc1ccc(N2CCNCC2)nn1", "note": "[Compound 123, 6-methoxy-2-methyl-N-(6-(piperazin-1-yl)pyridazin-3-yl)-2H-indazole-5-carboxamide hydrochloride]", "pIC50": "5.00 to 6.00"}
{"smiles": "Cc1cn2cc(C(=O)Nc3ccc(N4CCN[C@@H](C)C4)nn3)nc(C)c2n1", "note": "[Compound 124, (S)-2,8-dimethyl-N-(6-(3-methylpiperazin-1-yl)pyridazin-3-yl)imidazo[1,2-a]pyrazine-6-carboxamide hydrochloride]", "pIC50": "5.00 to 6.00"}
{"smiles": "COc1cc2nn(C)cc2cc1C(=O)Nc1ccc(N2CCN[C@@H](C)C2)nn1", "note": "[Compound 125, (S)-6-methoxy-2-methyl-N-(6-(3-methylpiperazin-1-yl)pyridazin-3-yl)-2H-indazole-5-carboxamide hydrochloride]", "pIC50": "> 6.00"}
{"smiles": "CCOc1cc2nc(C)cn2cc1C(=O)Nc1ccc(N2CCNCC2)cc1F", "note": "[Compound 126, 7-ethoxy-N-(2-fluoro-4-(piperazin-1-yl)phenyl)-2-methylimidazo[1,2-a]pyridine-6-carboxamide]", "pIC50": "> 6.00"}
{"smiles": "COc1c(C(=O)Nc2ccc(N3CCNCC3)cc2F)cn2cc(C)nc2c1C", "note": "[Compound 127, N-(2-fluoro-4-(piperazin-1-yl)phenyl)-7-methoxy-2,8-dimethylimidazo[1,2-a]pyridine-6-carboxamide]", "pIC50": "5.00 to 6.00"}
{"smiles": "Cc1cn2cc(C(=O)Nc3ccc(N4CCNCC4)cn3)c(OC3CCC3)cc2n1", "note": "[Compound 128, 7-cyclobutoxy-2-methyl-N-(5-(piperazin-1-yl)pyridin-2-yl) imidazo[1,2-a]pyridine-6-carboxamide hydrochloride]", "pIC50": "> 6.00"}
